Results on 7 molecules are retold here after patent publication US10213433B2 (AbbVie Inc., priority 2010, dated 2019).

As a reminder, the Ki is a measure of affinity in units of concentration, obtained from inhibition or displacement. Read a low Ki as higher affinity.

Bcl-2 protein, sequence (P10415 whole entry): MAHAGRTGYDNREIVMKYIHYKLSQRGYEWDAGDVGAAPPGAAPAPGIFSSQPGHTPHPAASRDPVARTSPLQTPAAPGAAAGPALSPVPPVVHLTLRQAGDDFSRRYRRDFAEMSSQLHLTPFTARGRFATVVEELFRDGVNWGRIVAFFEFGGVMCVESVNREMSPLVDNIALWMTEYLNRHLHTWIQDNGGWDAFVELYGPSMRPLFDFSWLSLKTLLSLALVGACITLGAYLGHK

For this experiment, the target named is Bcl-2 protein (Homo sapiens (Human), UniProt P10415). The experiment in a line: Bcl-2 binding TR-FRET (Time-Resolved Fluorescence-Resonance-Energy-Transfer) assay. The settings on record: inhibition constant for binding to Bcl-2 protein. An excerpt:
The smaller the Ki value, the greater is the binding affinity.
For orientation: Time-resolved FRET reads energy transfer from a long-lived donor to a nearby acceptor.
For `CC1(C)CCC(CN2CCN(c3ccc(C(=O)NS(=O)(=O)c4ccc(OCC5(F)CCN(C6COC6)CC5)c(C#N)c4)c(Oc4cnc5[nH]ccc5c4)c3)CC2)=C(c2ccc(Cl)cc2)C1` [Compound 357, 4-(4-{[2-(4-chlorophenyl)-4,4-dimethylcyclohex-1-en-1-yl]methyl}piperazin-1-yl)-N-[(3-cyano-4-{[4-fluoro-1-(oxetan-3-yl)piperidin-4-yl]methoxy}phenyl)sulfonyl]-2-(1H-pyrrolo[2,3-b]pyridin-5-yloxy)benzamide], the Ki was under 0.01 nM.

As for `COCCOCCS(=O)(=O)c1ccc(S(=O)(=O)NC(=O)c2ccc(N3CCN(CC4=C(c5ccc(Cl)cc5)CC(C)(C)CC4)CC3)cc2Oc2cnc3[nH]ccc3c2)cc1Cl` [Compound 58, N-[(3-chloro-4-{[2-(2-methoxyethoxyl)ethyl]sulfonyl}phenyl)sulfonyl]-4-(4-{[2-(4-chlorophenyl)-4,4-dimethylcyclohex-1-en-1-yl]methyl}piperazin-1-yl)-2-(1H-pyrrolo[2,3-b]pyridin-5-yloxy)benzamide], the Ki was under 0.01 nM.

`CC1(C)CCC(CN2CCN(c3ccc(C(=O)NS(=O)(=O)c4ccc(NC[C@H]5CC[C@@H](O)C5)c([N+](=O)[O-])c4)c(Oc4cnc5[nH]ccc5c4)c3)CC2)=C(c2ccc(Cl)cc2)C1` [Compound 158, 4-(4-{[2-(4-chlorophenyl)-4,4-dimethylcyclohex-1-en-1-yl]methyl}piperazin-1-yl)-N-{[4-({[(1S,3R)-3-hydroxycyclopentyl]methyl}amino)-3-nitrophenyl]sulfonyl}-2-(1H-pyrrolo[2,3-b]pyridin-5-yloxy)benzamide] came in with a Ki of under 0.01 nM.

On to `CC1(C)CCC(CN2CCN(c3ccc(C(=O)NS(=O)(=O)c4ccc(NCC56CC7CC(C5)C(O)C(C7)C6)c([N+](=O)[O-])c4)c(Oc4cnc5[nH]ccc5c4)c3)CC2)=C(c2ccc(Cl)cc2)C1` (stereo not shown) [Compound 199, 4-(4-{[2-(4-chlorophenyl)-4,4-dimethylcyclohex-1-en-1-yl]methyl}piperazin-1-yl)-N-{[4-({[(E)-4-hydroxy-1-adamantyl]methyl}amino)-3-nitrophenyl]sulfonyl}-2-(1H-pyrrolo[2,3-b]pyridin-5-yloxy)benzamide], for which the Ki was under 0.01 nM.

`CC1(C)CCC(CN2CCN(c3ccc(C(=O)NS(=O)(=O)c4ccc(NCC5CN(CC(=O)O)CCO5)c([N+](=O)[O-])c4)c(Oc4cnc5[nH]ccc5c4)c3)CC2)=C(c2ccc(Cl)cc2)C1` (stereo not shown) [Compound 216, (2-{[(4-{[4-(4-{[2-(4-chlorophenyl)-4,4-dimethylcyclohex-1-en-1-yl]methyl}piperazin-1-yl)-2-(1H-pyrrolo[2,3-b]pyridin-5-yloxy)benzoyl]sulfamoyl}-2-nitrophenyl)amino]methyl}morpholin-4-yl)acetic acid] came in with a Ki of under 0.01 nM.

Molecule `CC1(C)CCC(CN2CCN(c3ccc(C(=O)NS(=O)(=O)c4ccc(N[C@@H]5CCOC5)c([N+](=O)[O-])c4)c(Oc4cnc5[nH]ccc5c4)c3)CC2)=C(c2ccc(Cl)cc2)C1` [Compound 238, 4-(4-{[2-(4-chlorophenyl)-4,4-dimethylcyclohex-1-en-1-yl]methyl}piperazin-1-yl)-N-({3-nitro-4-[(3R)-tetrahydrofuran-3-ylamino]phenyl}sulfonyl)-2-(1H-pyrrolo[2,3-b]pyridin-5-yloxy)benzamide] yielded a Ki of under 0.01 nM.

For `O=C(NS(=O)(=O)c1ccc(NCC2CCOCC2)c([N+](=O)[O-])c1)c1ccc(N2CCN(CC3=C(c4ccc(Cl)cc4)CC4(CC3)CC4)CC2)cc1Oc1cnc2[nH]ccc2c1` [Compound 328, 4-(4-{[5-(4-chlorophenyl)spiro[2.5]oct-5-en-6-yl]methyl}piperazin-1-yl)-N-({3-nitro-4-[(tetrahydro-2H-pyran-4-ylmethyl)amino]phenyl}sulfonyl)-2-(1H-pyrrolo[2,3-b]pyridin-5-yloxy)benzamide], the Ki is under 0.01 nM.
